Tests used:
[1] = target: T1, Phosphatidylinositol 4,5-bisphosphate 3-kinase catalytic subunit delta isoform (Homo sapiens, UniProt O00329); experiment: PI3Kdelta Scintillation Proximity Assay; conditions: pH 6.7; 25 °C
T1 sequence (O00329 whole entry): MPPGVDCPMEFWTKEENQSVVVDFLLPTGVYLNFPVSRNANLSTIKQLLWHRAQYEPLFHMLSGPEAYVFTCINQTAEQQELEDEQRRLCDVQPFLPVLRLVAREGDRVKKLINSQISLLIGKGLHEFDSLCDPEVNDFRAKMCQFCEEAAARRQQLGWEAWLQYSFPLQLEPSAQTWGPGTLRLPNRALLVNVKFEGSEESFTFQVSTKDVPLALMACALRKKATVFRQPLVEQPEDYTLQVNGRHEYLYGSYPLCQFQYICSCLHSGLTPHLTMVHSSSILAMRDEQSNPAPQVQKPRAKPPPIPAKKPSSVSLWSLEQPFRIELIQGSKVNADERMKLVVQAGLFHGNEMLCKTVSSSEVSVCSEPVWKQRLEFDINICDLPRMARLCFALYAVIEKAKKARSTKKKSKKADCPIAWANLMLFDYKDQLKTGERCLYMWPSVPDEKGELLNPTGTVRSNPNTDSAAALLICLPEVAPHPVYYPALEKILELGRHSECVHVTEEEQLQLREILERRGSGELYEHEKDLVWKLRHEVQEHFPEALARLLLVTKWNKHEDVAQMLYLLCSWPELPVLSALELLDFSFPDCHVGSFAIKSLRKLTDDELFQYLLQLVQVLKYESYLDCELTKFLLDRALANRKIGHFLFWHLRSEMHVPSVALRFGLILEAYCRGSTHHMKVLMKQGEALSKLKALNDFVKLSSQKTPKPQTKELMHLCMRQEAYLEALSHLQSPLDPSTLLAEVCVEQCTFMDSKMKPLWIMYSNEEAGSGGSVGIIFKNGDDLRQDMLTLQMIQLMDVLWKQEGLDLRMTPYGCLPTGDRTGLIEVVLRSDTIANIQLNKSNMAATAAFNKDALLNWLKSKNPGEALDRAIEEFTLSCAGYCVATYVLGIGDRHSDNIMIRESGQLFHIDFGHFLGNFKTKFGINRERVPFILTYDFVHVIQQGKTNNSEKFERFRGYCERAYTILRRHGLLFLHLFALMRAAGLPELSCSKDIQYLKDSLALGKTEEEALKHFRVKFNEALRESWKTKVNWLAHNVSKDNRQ
Excerpt: [γ-33P]ATP (10 mCi/mL) and Wheat Germ Agglutinin (WGA) YSi SPA Scintillation Beads was purchased from Perkin-Elmer (Waltham, Mass.). Lipid kinase substrate, D-myo-Phosphatidylinositol 4,5-bisphosphate (PtdIns(4,5)P2)D (+)-sn-1,2-di-O-octanoylglyceryl, 3-O-phospho linked (PIP2), CAS 204858-53-7, was purchased from Echelon Biosciences (Salt Lake City, Utah). PI3Kδ (p110δ/p85α) Recombinant Human Protein was purchased from Eurofins (St. Charles, Mo.). ATP, MgCl2, DTT, EDTA, MOPS and CHAPS were purchased from Sigma-Aldrich (St. Louis, Mo.).The kinase reaction was conducted in polystyrene 384-well Greiner Bio-one white plate from Thermo Fisher Scientific in a final volume of 25 μL. Inhibitors were first diluted serially in DMSO and added to the plate wells before the addition of other reaction components. The final concentration of DMSO in the assay was 2%. The PI3Kδ assay was carried out at room temperature in 20 mM MOPS, pH 6.7, 10 mM MgCl2, 5 mM DTT and CHAPS 0.03%. Reactions were initiated by the addition of ATP, the final reaction mixture consisted of 20 μM PIP2, 2 μM ATP, 0.5 μCi [γ-33P] ATP, 3.4 nM PI3Kδ. Reactions were incubated for 120 min and terminated by the addition of 40 μL SPA beads suspended in quench buffer: 163 mM potassium phosphate pH 7.8, 20% glycerol, 25 mM EDTA. The final concentration of SPA beads is 1.0 mg/mL. After the plate sealing, plates were shaken overnight at room temperature and centrifuged at 1500 rpm for 10 min, the radioactivity of the product was determined by scintillation counting on Topcount (Perkin-Elmer). IC50 determination was performed by fitting the curve of percent of the solvent control activity versus the log of the inhibitor concentration using the GraphPad Prism 6.0 software.

[2] = target: Phosphatidylinositol 4,5-bisphosphate 3-kinase catalytic subunit gamma isoform (Homo sapiens, UniProt P48736); experiment: PI3K-gamma Scintillation Proximity Assay; conditions: pH 6.7; 25 °C
Excerpt: γ-33P]ATP (10 mCi/mL) and Wheat Germ Agglutinin (WGA) YSi SPA Scintillation Beads was purchased from Perkin-Elmer (Waltham, Mass.). Lipid kinase substrate, D-myo-Phosphatidylinositol 4,5-bisphosphate (PtdIns(4,5)P2)D (+)-sn-1,2-di-O-octanoylglyceryl, 3-O-phospho linked (PIP2), CAS 204858-53-7, was purchased from Echelon Biosciences (Salt Lake City, Utah). PI3Kγ (p110γ) Recombinant Human Protein was purchased from Life technology (Grand Island, N.Y.). ATP, MgCl2, DTT, EDTA, MOPS and CHAPS were purchased from Sigma-Aldrich (St. Louis, Mo.).The kinase reaction was conducted in polystyrene 384-well Greiner Bio-one white plate from Thermo Fisher Scientific in a final volume of 25 μL. Inhibitors were first diluted serially in DMSO and added to the plate wells before the addition of other reaction components. The final concentration of DMSO in the assay was 2%. The PI3Kγ assay was carried out at room temperature in 20 mM MOPS, pH 6.7, 10 mM MgCl2, 5 mM DTT and CHAPS 0.03%. Reactions were initiated by the addition of ATP, the final reaction mixture consisted of 20 μM PIP2, 2 μM ATP, 0.5 μCi [γ-33P] ATP, 13 nM PI3Kγ. […] After the plate sealing, plates were shaken overnight at room temperature and centrifuged at 1500 rpm for 10 min, the radioactivity of the product was determined by scintillation counting on Topcount (Perkin-Elmer). […]

Phosphatidylinositol 4,5-bisphosphate 3-kinase catalytic subunit gamma isoform, sequence (P48736 whole entry, canonical isoform): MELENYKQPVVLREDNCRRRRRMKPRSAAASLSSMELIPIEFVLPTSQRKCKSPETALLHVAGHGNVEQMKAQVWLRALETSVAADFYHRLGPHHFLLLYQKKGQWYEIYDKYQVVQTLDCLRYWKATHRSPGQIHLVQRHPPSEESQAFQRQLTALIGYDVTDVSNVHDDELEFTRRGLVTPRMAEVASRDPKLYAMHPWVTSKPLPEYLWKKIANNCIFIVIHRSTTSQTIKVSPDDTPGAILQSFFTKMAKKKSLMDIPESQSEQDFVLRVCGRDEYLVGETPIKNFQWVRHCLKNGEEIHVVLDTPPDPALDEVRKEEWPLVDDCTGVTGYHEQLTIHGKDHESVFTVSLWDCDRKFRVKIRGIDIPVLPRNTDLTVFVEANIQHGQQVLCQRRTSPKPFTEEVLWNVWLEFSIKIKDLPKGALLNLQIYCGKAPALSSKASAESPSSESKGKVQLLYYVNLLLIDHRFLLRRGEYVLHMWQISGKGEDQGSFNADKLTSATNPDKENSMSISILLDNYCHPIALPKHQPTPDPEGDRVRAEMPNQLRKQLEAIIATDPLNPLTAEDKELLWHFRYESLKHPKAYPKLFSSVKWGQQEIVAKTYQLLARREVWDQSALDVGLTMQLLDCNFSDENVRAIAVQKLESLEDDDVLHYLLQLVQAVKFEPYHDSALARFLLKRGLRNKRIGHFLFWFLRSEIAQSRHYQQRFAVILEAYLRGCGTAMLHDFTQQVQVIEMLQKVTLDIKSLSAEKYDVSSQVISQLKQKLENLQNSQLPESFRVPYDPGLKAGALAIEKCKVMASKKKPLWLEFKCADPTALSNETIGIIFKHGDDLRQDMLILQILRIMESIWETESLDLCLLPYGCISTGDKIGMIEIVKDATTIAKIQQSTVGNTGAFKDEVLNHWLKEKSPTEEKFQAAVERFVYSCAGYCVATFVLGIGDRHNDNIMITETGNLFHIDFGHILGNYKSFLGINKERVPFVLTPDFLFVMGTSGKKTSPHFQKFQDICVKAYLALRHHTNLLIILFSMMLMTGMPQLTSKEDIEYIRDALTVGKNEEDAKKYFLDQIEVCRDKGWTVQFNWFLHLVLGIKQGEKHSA

IC50 [2] [µM]	SMILES	IC50 [1] [µM]
	COc1cncc(-c2ccc3nc(-c4cc5ccccc5[nH]4)oc3c2)c1 [US10022387, Example 4]	< 5
	CCS(=O)(=O)Nc1cncc(-c2ccc3nc(-c4nc5ccccc5[nH]4)oc3c2)c1 [US10022387, Example 73]	< 5
< 1	CC(=O)Nc1cc(-c2ccc3nc(-c4nc5ccccc5[nH]4)oc3c2)cnc1F [US10022387, Example 33]	> 5

— BindingDB's records for patent US10022387 (Incyte, 2018)
